Test results: PMC12648443, “Modifications of NU-9, a potent protein aggregation inhibitor. Properties and activity in a cellular model of amyotrophic lateral sclerosis” (Bioorganic chemistry, 2025)
Blank lines part the entries; values can stand above or below the compound they belong to.

Tests used:
[1] = system: cells containing SOD1 mutations associated with ALS; parameters: method as in PMID 21073276, PMID 22189273, PMID 22837812; conditions: Fig. 1, evolution of CHD series; cited from earlier work
cortical neurons = system: cortical neurons; parameters: method as in PMID 22189273; conditions: cited from earlier work
[2] = system: MG132-induced mutant SOD1 intracellular aggregation in PC12-SOD1^G85R YFP cells; assay: Protection against MG132-induced mut-SOD1 intracellular aggregation (fluorescence microscopy); type: cell-based; conditions: for EC50 / EC50 against MG132-induced mutant SOD1 intracellular aggregation: PC12-SOD1^G85R YFP cells, 0.7 μM MG132, 72 h, Inactive = no decrease of aggregates at 10 μM vs vehicle; for loss of potency relative to NU-9: anti-aggregation EC50 compared with NU-9
Experimental: The PC12 Tet-Off-SOD1^G85R YFP cells were cultured in DMEM media supplemented with 10 % horse serum, 5 % Tet-approved FBS, 1 % Penstrep, 1× L-glutamine, 200 μg/mL hygromycin, 100 μg/mL G418, with 1 μg/mL Doxycycline and were incubated at 37 °C in humidified air with […] until 90–95 % confluency. To induce the expression of SOD1^G85R YFP, the Doxycycline was removed at least 4 days before the experiment. To remove the Doxycycline, the media was removed, and the cells were washed 3 times with 1xPBS. The cells were then cultured in standard culture media without Doxycycline. To set up the assay, the cells were then seeded into 96-well cell culture plates (Greiner Bio-One Catalog #655090) at a concentration of 50,000 cells/well with a final volume of 100 μL/well and incubated in the CO2 incubator at 37 °C for 24 h. The media were removed from the cells and replaced with 100 μL of media containing 0.1 % DMSO or compounds, and incubated in the CO2 incubator at 37 °C for 6 h. The media were then replaced with fresh 100 μL of media containing the diluted compounds with 0.7 μM (−)-MG-132, and the plates were incubated for 72 h under culture conditions. After 72 h, the cells were stained with Hoescht 33,342 (55 μg/mL, 10 μL/well) and imaged (lex = 358, 513 nm) using a Molecular Devices ImageXpress Micro Confocal High-Content Imaging System equipped with a 40× objective. […] Image binning was set to 2. DAPI fluorescence was captured using an exposure time of 300 ms, and FITC fluorescence was captured using an exposure time of 400 ms. A 13-plane z-series was acquired for each field of view with a step size of 3 μm. For each condition, 2 sets of 9 images were generated in a 3 × 3 grid to separately image the SOD1^G85R YFP proteins and the nuclei stained with Hoescht 33,342. Image analysis was performed with MetaXpress software (Molecular Devices) using the Transfluor module. Parameters for puncta detection (aggregates) were set with a minimum pit width of 2 μm and a maximum pit width of 5 μm. Signal intensity thresholds were defined as 700 grayscale units above the local background. The analysis provided the average area of each cell that is covered by puncta (pit/cell), which are indicated by bright green spots on the SOD1^G85RYFP image set.
The assay was performed in triplicate for each condition tested, and wells containing the media with vehicle (0.1 % DMSO) or (−)-MG-132 alone were used as controls representing the minimum and maximum aggregate formation. […] The data for EC50 determination was treated with Prism and fitted using a semi-logarithmic curve for determination of the EC50 values of NU9 and compounds 4, 6, 20 and 21.

[3] = Parallel artificial membrane permeability assay - blood brain barrier (PAMPA-BBB); conditions: for Log Pe: High permeability LogPe > −5.33, No permeability LogPe < −6.14; for Papp at 18 h, 250 μM: pig, PAMPA, pH 7.5
P-gp = biological target: T1, P-gp (Homo sapiens, UniProt P08183); assay: MDCK-MDR1 bidirectional permeability / efflux assay; type: in vitro ADME; conditions: MDCK-MRD1, absence of zosuquidar
T1 construct: host or cells: MDCK-MDR1 (Madin Darby canine kidney cells carrying the MDR1 gene)
T1 sequence (P08183 whole entry): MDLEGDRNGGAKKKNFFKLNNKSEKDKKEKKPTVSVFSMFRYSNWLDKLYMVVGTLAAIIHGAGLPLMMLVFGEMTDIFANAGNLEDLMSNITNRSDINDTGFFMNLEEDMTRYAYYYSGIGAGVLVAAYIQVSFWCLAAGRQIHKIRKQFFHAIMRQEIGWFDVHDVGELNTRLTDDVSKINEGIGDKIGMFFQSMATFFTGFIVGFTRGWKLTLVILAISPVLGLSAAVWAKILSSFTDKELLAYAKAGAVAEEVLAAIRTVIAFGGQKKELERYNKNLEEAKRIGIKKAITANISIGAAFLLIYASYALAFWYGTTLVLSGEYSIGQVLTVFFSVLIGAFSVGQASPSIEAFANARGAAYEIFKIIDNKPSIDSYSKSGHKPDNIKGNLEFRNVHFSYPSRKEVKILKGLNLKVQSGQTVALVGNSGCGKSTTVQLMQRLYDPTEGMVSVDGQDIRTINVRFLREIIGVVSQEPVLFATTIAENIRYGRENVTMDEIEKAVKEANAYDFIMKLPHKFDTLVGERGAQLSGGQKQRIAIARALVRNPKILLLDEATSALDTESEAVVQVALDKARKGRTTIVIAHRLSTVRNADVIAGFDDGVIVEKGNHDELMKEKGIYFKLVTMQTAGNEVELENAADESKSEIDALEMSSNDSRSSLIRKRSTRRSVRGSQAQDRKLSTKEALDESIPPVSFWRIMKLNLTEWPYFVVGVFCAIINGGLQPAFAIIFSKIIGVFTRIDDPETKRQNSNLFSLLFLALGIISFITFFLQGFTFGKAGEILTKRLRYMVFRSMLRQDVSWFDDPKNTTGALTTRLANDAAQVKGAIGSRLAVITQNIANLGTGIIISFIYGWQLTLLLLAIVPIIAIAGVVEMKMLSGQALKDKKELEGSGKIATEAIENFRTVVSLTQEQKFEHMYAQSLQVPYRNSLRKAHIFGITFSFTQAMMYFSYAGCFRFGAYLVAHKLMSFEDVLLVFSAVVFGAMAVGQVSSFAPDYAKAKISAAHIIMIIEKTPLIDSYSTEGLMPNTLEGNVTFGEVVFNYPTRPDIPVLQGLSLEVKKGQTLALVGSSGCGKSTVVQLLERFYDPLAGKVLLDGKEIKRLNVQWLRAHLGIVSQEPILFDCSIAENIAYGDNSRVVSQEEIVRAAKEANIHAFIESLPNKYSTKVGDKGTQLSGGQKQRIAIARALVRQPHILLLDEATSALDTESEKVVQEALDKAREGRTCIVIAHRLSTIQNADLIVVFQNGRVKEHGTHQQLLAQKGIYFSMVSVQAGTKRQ
Experimental: The assay was carried out at Sai Life Sciences. Stock solutions of 6, 20, assay controls loperamide, atenolol, and propanolol (4 and 20 mM), and P-gp inhibitor zosuquidar (10 mM) were prepared in DMSO. Then the stock solutions from each test compound were diluted in HBSS buffer containing 10 mM HEPES to obtain the assay working solutions without the P-gp inhibitor at 2 and 10 μM (0.1 % DMSO v/v). Into working solutions containing zosuquidar (5 μM) were individually diluted 6, 20, and loperamide to obtain working solutions containing the test compounds at 2 or 10 μM and zosuquidar at 5 μM.
The MDCK-MDR1 (Madin Darby canine kidney - Multidrug Resistance gene-1) cells were cultured in DMEM media supplemented with 10 % FBS and antibiotics. For transport studies, cells were seeded into PET trans filter membranes (Millipore #PSRP010R5; 1.0 μm pore size) at a density of 1.2 × 10^5 cells/well and colchicine was added to the flasks and plates according to their volume. After 24 h, the media were replaced by fresh media and then changed every 2 days over 8 days. The media were removed from the wells of the basal and apical compartments of the plates, and a solution of HBSS with or without zosuquidar (5 μM) was added to the apical (400 μL) and basal (800 μL) sides of the plates. The plates were pre-incubated at 37 °C for 30 min in humidified air with 5 % CO2. The TTER (Transepithelial-Transendothelial Electrical Resistance) value for each well was recorded (assay TEER >83 Ω.cm^2). The buffer was removed from both compartments, and for the apical to basal direction transport determination, the apical compartment was loaded with 400 μL of the working solutions of the tested compounds or controls (2 or 10 μM) in the presence or absence of zosuquidar (5 μM), and the basal compartment was loaded with 800 μL of HBSS (0.1 % DMSO v/v). For the basal to apical direction transport determination, the compartments were loaded in their reverse order. The assay was performed in duplicate for the two transport directions [apical to basolateral (A → B) and basolateral to apical (B → A)]. After 120 min, 100 μL samples from both the apical and basal sides of the plate were transferred to new 96-deep well plates, quenched with acetonitrile containing an internal standard, vortexed for 5 min, and then centrifuged at 4000 rpm for 10 min. The same procedure was used to prepare a 96-deep well plate containing non-assayed working solutions (t = 0 concentrations). After centrifugation, 100 μL of the supernatant of each well was transferred to a new 96-well plate, and the samples were analyzed by LC-MS/MS.
For each experiment, the apparent permeability (Papp) for each direction and the efflux ratio (ER) were determined by the equations: Papp(cm/s)=(dQ/dt)/A×Co
where dQ/dt is the rate of permeation of the tested compounds across the (0 and 120 min) after correcting for dilution; A is the area of the filter (0.7 cm^2); Co is the initial concentration of the compounds on the donor compartment.
Where P(B→A) is the apparent permeability of the compounds from the basal to the apical direction and P(A→B) is the apparent permeability from the apical to basal direction. Lucifer Yellow was used as a control of the assay to evaluate monolayer integrity after incubation with the working solutions of the compounds, and the results were validated if the permeability of Lucifer Yellow from the apical to the basal side after 1-h incubation was kept <2 %. The results are presented as an average of two independent experiments.

Compound: O=C1CC(=O)CC(c2ccc(F)cc2)C1 [Compound 1]
EC50 [1]: 0.8 µM

Compound: O=C1CC(=O)CC(c2cc(C(F)(F)F)cc(C(F)(F)F)c2)C1 [Compound 2]
EC50 [1]: 0.7 µM
activity in cortical neuron protection assays (cortical neurons): inactive

Compound: O=C1CC(=O)CC(C(O)Cc2cc(C(F)(F)F)cc(C(F)(F)F)c2)C1 (stereo not drawn) [Compound 4, 5-(2-(3,5-Bis(trifluoromethyl)phenyl)-1-hydroxyethyl)cyclohexane-1,3-dione]
EC50 [2]: 7.89 ± 1.88 µM
loss of potency relative to NU-9 [2]: 3 fold
Log Pe ([3]; PAMPA-BBB): −6.61
Papp at 18 h, 250 μM [3]: 0.25 ± 0.01 ×10⁻⁶ cm/s

Compound: O[C@@H]1CC([C@H](O)Cc2cc(C(F)(F)F)cc(C(F)(F)F)c2)C[C@H](O)C1 (stereo partly drawn) [Compound 5, (1R,3S)-5-((R)-2-(3,5-Bis(trifluoromethyl)phenyl)-1-hydroxyethyl)cyclohexane-1,3-diol]
EC50 against MG132-induced mutant SOD1 intracellular aggregation [2]: Inactive

Compound: COC1=CC(=O)C(Cc2cc(C(F)(F)F)cc(C(F)(F)F)c2)C1 (stereo not drawn) [Compound 7, 5-(3,5-Bis(trifluoromethyl)benzyl)-3-methoxycyclopent-2-en-1-one]
EC50 against MG132-induced mutant SOD1 intracellular aggregation [2]: Inactive

Compound: O=C1CC(=O)C(Cc2cc(C(F)(F)F)cc(C(F)(F)F)c2)C1 (stereo not drawn) [Compound 8, 4-(3,5-Bis(trifluoromethyl)benzyl)cyclopentane-1,3-dione]
EC50 [2]: > 10 µM

Compound: O=C1CC(=O)CN(CCc2cc(C(F)(F)F)cc(C(F)(F)F)c2)C1 [Compound 10, 1-(3,5-Bis(trifluoromethyl)phenethyl)piperidine-3,5-dione]
EC50 [2]: > 10 µM

Compound: O=C1CC2CC(C1)C(Cc1cc(C(F)(F)F)cc(C(F)(F)F)c1)O2 (stereo not drawn) [Compound 11]
EC50 against MG132-induced mutant SOD1 intracellular aggregation [2]: Inactive

Compound: O=C1CC2CC(C1)C(Cc1cc(C(F)(F)F)cc(C(F)(F)F)c1)O2 (stereo not drawn) [Compound 12]
EC50 against MG132-induced mutant SOD1 intracellular aggregation [2]: Inactive

Compound: CN(C)C(=O)C(CCN1CCC(O)(c2ccc(Cl)cc2)CC1)(c1ccccc1)c1ccccc1 [Lop., loperamide, reference compound]
Papp (B → A) (P-gp): 25.70 ± 0.35 10^−6 cm/s
efflux ratio at 120 min (P-gp; dog, MDCK-MDR1, read-out: Efflux Ratio): 128
Papp A→B at 120 min (P-gp; dog, MDCK-MDR1, read-out: Papp (A → B)): 0.2 ± 0.06 ×10⁻⁶ cm/s

More lines, main results first:

EC50 against MG132-induced mutant SOD1 intracellular aggregation [2]: Inactive
Compound: OC1CC2CC(C1)C(Cc1cc(C(F)(F)F)cc(C(F)(F)F)c1)O2 (stereo not drawn) [Compound 13]

EC50 against MG132-induced mutant SOD1 intracellular aggregation [2]: Inactive
Compound: OC1CC2CC(C1)C(Cc1cc(C(F)(F)F)cc(C(F)(F)F)c1)O2 (stereo not drawn) [Compound 14]

EC50 against MG132-induced mutant SOD1 intracellular aggregation [2]: Inactive
Compound: OC1CC2CC(C1)C(Cc1cc(C(F)(F)F)cc(C(F)(F)F)c1)O2 (stereo not drawn) [Compound 15]

EC50 [2]: > 10 µM
Compound: O=C1CC2CC(C1)C(c1cc(C(F)(F)F)cc(C(F)(F)F)c1)O2 (stereo not drawn) [Compound 16]
decrease in MG132-induced SOD-1^G85R aggregate formation ([2]; at 10 μM, 72 h): mild anti-aggregation activity

EC50 against MG132-induced mutant SOD1 intracellular aggregation [2]: Inactive
Compound: OC1CC2CC(C1)C(c1cc(C(F)(F)F)cc(C(F)(F)F)c1)O2 (stereo not drawn) [Compound 17]

EC50 against MG132-induced mutant SOD1 intracellular aggregation [2]: Inactive
Compound: Cl.N[C@H]1C[C@H]2C[C@@H](C1)[C@H](Cc1cc(C(F)(F)F)cc(C(F)(F)F)c1)O2 [Compound 18, (1R,3R,5R,7S)-7-(3,5-Bis(trifluoromethyl)benzyl)-6-oxabicyclo[3.2.1]octan-3-aminium chloride]

EC50 against MG132-induced mutant SOD1 intracellular aggregation [2]: Inactive
Compound: Cl.N[C@@H]1C[C@H]2C[C@@H](C1)[C@H](Cc1cc(C(F)(F)F)cc(C(F)(F)F)c1)O2 [Compound 19, (1R,3S,5R,7S)-7-(3,5-Bis(trifluoromethyl)benzyl)-6-oxabicyclo[3.2.1]octan-3-aminium chloride]

EC50 [2]: 5.37 ± 1.03 µM
Log Pe ([3]; PAMPA-BBB): −4.77
Papp at 18 h, 250 μM [3]: 16.8 ± 0.54 ×10⁻⁶ cm/s
Compound: O=C1CC(=O)CC(C2(Oc3cc(C(F)(F)F)cc(C(F)(F)F)c3)CCC2)C1 [Compound 21, 5-(1-(3,5-bis(trifluoromethyl)phenoxy)cyclobutyl)cyclohexane-1,3-dione]
loss of potency relative to NU-9 [2]: > 2 fold

Pe ([3]; PAMPA-BBB, 250 μM, PBS pH 7.5, 25 °C, 18 h): 17.43 ± 3.20 10^−6 cm/s
Log Pe ([3]; PAMPA-BBB): −4.76
Compound: CC1=NN(c2ccccc2)C(=O)C1 [Edaravone, edaravone, reference compound]
